Assay results: patent publication US12528840B2, “Transcription active complex targeting cancer drug from viral protein sequence” (The Regents of the University of California, priority 2020, dated 2026)

Columns and labels:
[1] = test system: monocyte-derived dendritic cells; test: Monocyte-derived dendritic cell live/dead staining and culture images; assay type: cell-based, human
Method: FIG. 14. Effect of MBK50 on CD14+ monocytes. FIG. 14(A) A scheme of the experimental procedure. Monocyte-derived dendritic cells were prepared from magnetic beads sorted CD14+ cells (from PBMC of a healthy donor) after culture for 4 days in the presence of GM-CSF+IL-4 (each 50 ng/ml). Cells were washed and cultured at 1×10^6/ml in a 96 well plate (200 μl/well in triplicates) without or with LPS (100 ng/ml), poly I:C (10 μg/ml), or sCD40L (1 μg/ml) in the presence of MBK50 (16 or 32 μM) or mutant peptide (32 μM) for 2 days. Live cells were determined using live/dead staining followed by flow cytometry analysis. FIG. 14(B) A representative flow profile with the gating strategy for live cells is shown. FIG. 14(C) Averages percentage of live cells for each culture condition are shown. *p<0.05, **p<0.01, ***p<0.001, ****p<0.0001
FIG. 15. Representative images of monocyte derived dendritic cells (MDCs) from two human healthy donors after treatment with MBK50, mutant peptide, or PBS for two days in U-bottom 96 well culture. The diameter of the ring approximately corresponds to the cell volume/numbers in each well.
Similar experiments were also performed with monocyte-derived dendritic cells as a model of human dendritic cells. […] Live cells were determined as shown above using live/dead staining.

B cells = test: B cell expansion in U-bottom plate upon sCD40L or ODN 2006 stimulation; assay type: cell-based; conditions: 32 μM
Method: B cells were prepared by magnetic beads from healthy donor PBMC (n=2). Representative pictures of B cell culture in a 96 well U-bottom plate in the presence of sCD40L (T cell dependent stimulation) or ODN 2006 (TLR9 ligand)(T cell independent stimulation) at indicated concentration without or with MBK50 (16, 32 μM) or mutant peptide (32 μM). The radius of cell volume in each well roughly correlate to the total cell numbers.

BC-1 cells = test: SLAM-seq, active transcription of cellular genes; assay type: cell-based; conditions: 24 μM, 30 min then 4sU 1 hour, BC-1 (FIG. 9: BCBL-1 and BC1)
Method: FIG. 9. Profiling Peptide targets with Thiol(SH)-linked alkylation for the metabolic sequencing of RNA (SLAM seq). Differences in active transcription in presence of peptide drug was examined. […] Total RNA-sequence performed 24 hours after drug incubation.
Thiol(SH)-linked alkylation for the metabolic sequencing of RNA (SLAM seq), an orthogonal-chemistry-based RNA sequencing technology detects 4-thiouridine (s4U) incorporation in RNA species at single-nucleotide resolution. Using SLAM-seq method, BC-1 cells were incubated with peptide drug and peptide with three amino acid substitute to alanine was used as a control peptide. Peptide drug was incubated in BC-1 cell culture (24 μM) and after 30 min drug incubation, 4sU (300 μM in final concentration) was added into culture media for 1 hour. Total RNA was isolated in the end of 1 hour 4sU incubation and alkylated RNA samples were subjected to SLAM-seq. Samples were duplicated and changed gene expression vs mock-treated cells (P<0.05) was marked in red. […] IGV viewer was used to visualize sequence reads at MYC region (Chr. 8). […] Log 2 fold changes and adjusted P-value of MYC down regulation in both BCBL-1 and BC-1 cells are depicted in underneath of panel.

THP-1 = test: MTT assay, THP-1; assay type: cell-based; conditions: THP-1 monocytic leukemia cell line
Method: FIG. 6. Viral and cellular responses to K-Rta peptide; identification of VGN50. (a) Protein sequence alignment. FIG. 6(A) The effect of VGN50 on various cancer cell types. MTT assays were performed with the indicated cell lines treated with various VGN50 concentrations. The O.D. of mock-treated samples were set as 100%, and O.D. from detergent treated cells were set as 0%. Percentage viability+/−SD was calculated for each treatment (N=3 samples/treatment). FIG. 6(B) Viability assay with flow cytometry. Cell viability was measured in triplicate with live/dead staining and the cell killing effects on cancer cells was compared with normal peripheral blood mononuclear cells (PBMC) from three healthy donors. Results are presented as percentage viability+/−SD deviation (N=3 samples/group).
As shown in FIG. 6(a), multiple cancer cell lines were used for MTT assay to evaluate cancer cell killing efficacies of the MBK50 peptide at different concentrations (cell variability studies). […] Importantly, human peripheral blood mononuclear cells (PBMCs) from healthy donors were approximately 10-fold less sensitive to MBK-mediated killing compared to myeloid and lymphoid cancer cell lines (e.g., THP-1 and BCBL-1) as assessed by flow cytometry after live/dead staining (FIG. 6(b)). […]

LSSILQGLYQLDT [MBK50]
percentage of live cells ([1]; 16 or 32 μM, 2 days, PBS, LPS, sCD40L conditions, vs control peptide or PBS): significantly reduced
appearance of MDCs in culture ([1]; two days, U-bottom 96 well culture): not clumped and were more spread and adhesive
cell volume in well (correlates to total cell numbers) (B cells; donor #46): significantly reduced
cell volume in well (correlates to total cell numbers) (B cells; donor #47): less so
cellular gene expression (active transcription) (BC-1 cells; listed as Wt-peptide): inhibited multiple cellular gene expression
cellular gene expression (active transcription) (BC-1 cells; listed as peptide drug): strongly inhibited active transcription
sensitivity to cell killing (THP-1): sensitive
